Measurements: patent US20250136722A1, “CYTOTOXICITY TARGETING CHIMERAS” (GLAXOSMITHKLINE INTELLECTUAL PROPERTY DEVELOPMENT LIMITED, priority 2021, published 2025)
Several values for one entry are separate records, joined by “and”; a condition that tells them apart may be missing. Equal values may be shown once.

Assays:
[1] = target: human alpha1 nicotinic acetylcholine (nACh) receptor (Homo sapiens, UniProt P02708+Q07001); assay: Nicotinic acetylcholine receptor antagonism assay, IONFlux automated patch clamp (Example 203); type: cell-based; conditions: for Emax at 100 µM: maximum percentage antagonism at maximum concentration tested 100 μM; for Emax at 100 µM / Emax at 10 µM: read-out: Maximum Response (%); for IC50: nAChR antagonism, ACh stimulated, patch clamp; for Emax at 10 µM: maximum percentage antagonism at maximum concentration tested 10 μM
Chain of human alpha1 nicotinic acetylcholine (nACh) receptor (P02708 21-457): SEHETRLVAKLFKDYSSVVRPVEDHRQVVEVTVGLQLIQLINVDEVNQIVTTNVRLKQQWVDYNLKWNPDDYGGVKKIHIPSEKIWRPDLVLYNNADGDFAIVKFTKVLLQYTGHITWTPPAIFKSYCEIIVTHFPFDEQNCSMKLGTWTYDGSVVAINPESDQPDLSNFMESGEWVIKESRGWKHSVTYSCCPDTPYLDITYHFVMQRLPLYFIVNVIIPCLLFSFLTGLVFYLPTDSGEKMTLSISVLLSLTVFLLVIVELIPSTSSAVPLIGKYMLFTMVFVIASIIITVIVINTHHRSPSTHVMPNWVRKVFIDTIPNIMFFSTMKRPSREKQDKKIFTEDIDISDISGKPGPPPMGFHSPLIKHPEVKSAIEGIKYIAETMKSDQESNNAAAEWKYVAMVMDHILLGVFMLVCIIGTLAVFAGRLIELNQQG
Chain of human alpha1 nicotinic acetylcholine (nACh) receptor (P11230 24-501 partner): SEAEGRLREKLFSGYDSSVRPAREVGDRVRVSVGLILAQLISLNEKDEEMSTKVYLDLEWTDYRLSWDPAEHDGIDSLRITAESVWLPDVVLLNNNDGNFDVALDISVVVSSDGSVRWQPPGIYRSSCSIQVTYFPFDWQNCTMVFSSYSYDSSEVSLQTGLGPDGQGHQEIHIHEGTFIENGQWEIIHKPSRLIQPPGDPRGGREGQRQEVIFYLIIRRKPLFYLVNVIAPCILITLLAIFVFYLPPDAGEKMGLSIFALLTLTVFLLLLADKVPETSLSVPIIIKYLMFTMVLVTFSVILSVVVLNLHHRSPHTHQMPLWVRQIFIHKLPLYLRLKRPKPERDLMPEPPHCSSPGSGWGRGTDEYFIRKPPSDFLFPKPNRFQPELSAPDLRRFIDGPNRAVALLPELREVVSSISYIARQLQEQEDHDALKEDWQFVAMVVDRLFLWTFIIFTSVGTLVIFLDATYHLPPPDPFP
Chain of human alpha1 nicotinic acetylcholine (nACh) receptor (Q07001 22-517): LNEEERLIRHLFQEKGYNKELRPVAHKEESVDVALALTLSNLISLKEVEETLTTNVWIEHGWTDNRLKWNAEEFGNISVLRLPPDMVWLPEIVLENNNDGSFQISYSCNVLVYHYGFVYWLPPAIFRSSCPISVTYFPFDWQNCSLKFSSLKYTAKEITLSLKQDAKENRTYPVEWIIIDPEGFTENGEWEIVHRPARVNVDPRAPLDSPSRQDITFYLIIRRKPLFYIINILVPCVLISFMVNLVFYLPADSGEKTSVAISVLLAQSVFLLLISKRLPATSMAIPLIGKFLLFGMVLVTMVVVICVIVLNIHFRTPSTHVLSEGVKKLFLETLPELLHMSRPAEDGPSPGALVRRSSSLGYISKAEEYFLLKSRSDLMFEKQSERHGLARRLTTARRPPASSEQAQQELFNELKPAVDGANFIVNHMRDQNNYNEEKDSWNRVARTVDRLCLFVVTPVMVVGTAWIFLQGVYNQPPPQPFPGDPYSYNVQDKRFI
Procedure, shortened: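 Human α1 nAChR-expressing cells were preincubated with compound (top 10 μM or 100 μM), then stimulated with 10 mM ACh; peak currents were recorded by IONFlux automated patch clamp. Percent inhibition versus ACh-alone control was vehicle- and rundown-corrected, then fitted to give IC50, with maximal antagonism at the top concentration; recordings with control current <500 pA were excluded.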

[2] = target: Anti-cotinine antibody (SEQ ID NO: 11 / SEQ ID NO: 12, rabbit variable region with human IgG1 Fc domain); assay: Binding of anti-cotinine antibody to ARM compounds by SPR, Biacore T200, 37° C. (Example 202); conditions: pH 7.4, rabbit variable region/human IgG1 Fc antibody captured on protein A
Procedure, shortened: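 Antibody captured on protein A chip. Compounds injected (3-fold, 5-point, top 200 nM) at 100 μL/min with 200 s association and 2000 s dissociation, at 37° C. in HEPES pH 7.4 buffer with 1% DMSO. Double-referenced data fit to 1:1 kinetics. Kd = koff/kon, reported as pKd, averaged over runs.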

[3] = target: T1, CHOK1 cells engineered to overexpress human CCR2 (Homo sapiens, UniProt P41597); assay: Antibody dependent cellular cytotoxicity (ADCC) reporter assay (Example 199); type: cell-based; conditions: with anti-cotinine antibody SEQ ID NO: 11/12; CHOK1-human CCR2 target cells, Jurkat FcγRIIIa NFAT-luciferase reporter cells; 12-18 hours; read-out: ADCC Reporter Assay pEC50 (converted)
T1 construct: expressed in transfected cells; host or cells: CHOK1 cells
Procedure, shortened: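 CHOK1-hCCR2 target cells are co-incubated for 12–18 h with Jurkat FcγRIIIa/NFAT-luciferase reporter cells, ARM compound (1 pM–10 μM) and anti-cotinine antibody with a DE-mutant human IgG1 Fc (0.01–200 μg/mL). Luminescence is expressed as signal:background against no-compound wells; EC50 comes from nonlinear fit and is reported as pEC50, averaged across runs.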

| Emax at 10 µM [1] [%] | Structure (SMILES) | Emax at 100 µM [1] [%] | IC50 [1] [nM] | pKd of Antibody for ARM Compound of Formula (I) [2] | EC50 [3] |
| --- | --- | --- | --- | --- | --- |
|  | CC(C)N(C)[C@@H]1CC[C@H](N2CC[C@H](Nc3ncnc4ccc(C(F)(F)F)cc34)C2=O)[C@H](NC(=O)[C@H]2CC[C@@H](NC(=O)CCOCCOCCNC(=O)CNC(=O)[C@H]3CC(=O)N(C)[C@@H]3c3cccnc3)CC2)C1 [Example 63, (2S,3S)-N-(2-((2-(2-(3-(((1 S,4s)-4-(((1R,2S,5R)-5-(Isopropyl(methyl)amino)-2-((S)-2-oxo-3-((6-(trifluoromethyl)quinazolin-4-yl)amino)pyrrolidin-1-yl)cyclohexyl)carbamoyl)cyclohexyl)amino)-3-oxopropoxy)ethoxy)ethyl)amino)-2-oxoethyl)-1-methyl-5-oxo-2-(pyridin-3-yl)pyrrolidine-3-carboxamide] | 76.6 | 38500 | 8.674 | 0.67 nM and 0.31 nM |
| 32.7 | CC(C)N(C)[C@@H]1CC[C@H](N2CC[C@H](Nc3ncnc4ccc(C(F)(F)F)cc34)C2=O)[C@H](NC(=O)[C@H]2CC[C@@H](C3CCN(C(=O)CCOCCOCCNC(=O)[C@H]4CC(=O)N(C)[C@@H]4c4cccnc4)CC3)CC2)C1 [Example 72, (2S,3S)-N-(2-(2-(3-(4-((1S,4s)-4-(((1R,2S,5R)-5-(isopropyl(methyl)amino)-2-((S)-2-oxo-3-((6-(trifluoromethyl)quinazolin-4-yl)amino)pyrrolidin-1-yl)cyclohexyl)carbamoyl)cyclohexyl)piperidin-1-yl)-3-oxopropoxy)ethoxy)ethyl)-1-methyl-5-oxo-2-(pyridin-3-yl)pyrrolidine-3-carboxamide] |  | > 10000 | 9.8865 | 7.94 nM |
|  | CC(C)N(C)[C@@H]1CC[C@H](N2CC[C@H](Nc3ncnc4ccc(C(F)(F)F)cc34)C2=O)[C@H](NC(=O)CCOCCOCCNC(=O)CCOCCOCCNC(=O)[C@H]2CC(=O)N(C)[C@@H]2c2cccnc2)C1 [Example 76] | 67.7 | 32400 | 9.1155 | 2.51 nM |
| 19.6 | CC(C)N(C)[C@@H]1CC[C@H](N2CC[C@H](Nc3ncnc4ccc(C(F)(F)F)cc34)C2=O)[C@H](NC(=O)COCCOCCNC(=O)CCOCCOCCNC(=O)[C@H]2CC(=O)N(C)[C@@H]2c2cccnc2)C1 [Example 77] |  | > 10000 | 9.152 | 5.52 nM |
|  | CC(C)N(C)[C@@H]1CC[C@H](N2CC[C@H](Nc3ncnc4ccc(C(F)(F)F)cc34)C2=O)[C@H](NC(=O)[C@H]2CC[C@@H](NC(=O)COCCNC(=O)COCCNC(=O)[C@H]3CC(=O)N(C)[C@@H]3c3cccnc3)CC2)C1 [Example 99] | 71.1 | 33100 | 9.062 | 1.99 nM |
|  | CC(C)N(C)[C@@H]1CC[C@H](N2CC[C@H](Nc3ncnc4ccc(C(F)(F)F)cc34)C2=O)[C@H](NC(=O)CCOCCNC(=O)COCCNC(=O)COCCNC(=O)[C@H]2CC(=O)N(C)[C@@H]2c2cccnc2)C1 [Example 102, (2S,3S)-N-(18-(((1R,2S,5R)-5-(Isopropyl(methyl)amino)-2-((S)-2-oxo-3-((6-(trifluoromethyl)quinazolin-4-yl)amino)pyrrolidin-1-yl)cyclohexyl)amino)-5,11,18-trioxo-3,9,15-trioxa-6,12-diazaoctadecyl)-1-methyl-5-oxo-2-(pyridin-3-yl)pyrrolidine-3-carboxamide] | 61.3 | 66100 | 9.076 | 1.26 nM |
|  | CC(C)N(C)[C@@H]1CC[C@H](N2CC[C@H](Nc3ncnc4ccc(C(F)(F)F)cc34)C2=O)[C@H](NC(=O)CCOCCNC(=O)CCOCCNC(=O)COCCNC(=O)[C@H]2CC(=O)N(C)[C@@H]2c2cccnc2)C1 [Example 105] | 75.7 | 38900 | 9.0705 | 0.794 nM |
|  | CC(C)N(C)[C@@H]1CC[C@H](N2CC[C@H](Nc3ncnc4ccc(C(F)(F)F)cc34)C2=O)[C@H](NC(=O)COCCNC(=O)COCCNC(=O)COCCNC(=O)[C@H]2CC(=O)N(C)[C@@H]2c2cccnc2)C1 [Example 111, (2S,3S)-N-(17-(((1R,2S,5R)-5-(Isopropyl(methyl)amino)-2-((S)-2-oxo-3-((6-(trifluoromethyl)quinazolin-4-yl)amino)pyrrolidin-1-yl)cyclohexyl)amino)-5,11,17-trioxo-3,9,15-trioxa-6,12-diazaheptadecyl)-1-methyl-5-oxo-2-(pyridin-3-yl)pyrrolidine-3-carboxamide] | 67.6 | 52900 | 9.0855 | 6.31 nM |
|  | CC(C)N(C)[C@@H]1CC[C@H](N2CC[C@H](Nc3ncnc4ccc(C(F)(F)F)cc34)C2=O)[C@H](NC(=O)CNC(=O)[C@H]2CC[C@@H](NC(=O)CCOCCOCCNC(=O)[C@H]3CC(=O)N(C)[C@@H]3c3cccnc3)CC2)C1 [Example 137, (2S,3S)-N-(2-(2-(3-(((1S,4s)-4-((2-(((1R,2S,5R)-5-(Isopropyl(methyl)amino)-2-((S)-2-oxo-3-((6-(trifluoromethyl)quinazolin-4-yl)amino)pyrrolidin-1-yl)cyclohexyl)amino)-2-oxoethyl)carbamoyl)cyclohexyl)amino)-3-oxopropoxy)ethoxy)ethyl)-1-methyl-5-oxo-2-(pyridin-3-yl)pyrrpolidine-3-carboxamide] | 62 | 70000 | 9.336 | 1.67 nM |
|  | CC(C)N(C)[C@@H]1CC[C@H](N2CC[C@H](Nc3ncnc4ccc(C(F)(F)F)cc34)C2=O)[C@H](NC(=O)[C@H]2CC[C@@H](NC(=O)CCOCCNC(=O)CCNC(=O)CCNC(=O)[C@H]3CC(=O)N(C)[C@@H]3c3cccnc3)CC2)C1 [Example 182, (2S,3S)-N-(3-((3-((2-(3-(((1S,4s)-4-(((1R,2S,5R)-5-(Isopropyl(methyl)amino)-2-((S)-2-oxo-3-((6-(trifluoromethyl)quinazolin-4-yl)amino)pyrrolidin-1-yl)cyclohexyl)carbamoyl)cyclohexyl)amino)-3-oxopropoxy)ethyl)amino)-3-oxopropyl)amino)-3-oxopropyl)-1-methyl-5-oxo-2-(pyridin-3-yl)pyrrolidine-3-carboxamide] | 61.9 | 76400 | 9.117 | 0.514 nM and 0.191 nM |
|  | CC(C)N(C)[C@@H]1CC[C@H](N2CC[C@H](Nc3ncnc4ccc(C(F)(F)F)cc34)C2=O)[C@H](NC(=O)CCOCCC(=O)N[C@H]2C[C@@H](C(=O)NCCOCCNC(=O)[C@H]3CC(=O)N(C)[C@@H]3c3cccnc3)C2)C1 [Example 186, (2S,3S)-N-(2-(2-((1S,3R)-3-(3-(3-(((1R,2S,5R)-5-(Isopropyl(methyl)amino)-2-((S)-2-oxo-3-((6-(trifluoromethyl)quinazolin-4-yl)amino)pyrrolidin-1-yl)cyclohexyl)amino)-3-oxopropoxy)propanamido)cyclobutane-1-carboxamido)ethoxy)ethyl)-1-methyl-5-oxo-2-(pyridin-3-yl)pyrrolidine-3-carboxamide] | 55.2 | 31800 | 9.1435 | 0.151 nM |
|  | CC(C)N(C)[C@@H]1CC[C@H](N2CC[C@H](Nc3ncnc4ccc(C(F)(F)F)cc34)C2=O)[C@H](NC(=O)CCOCCC(=O)N[C@H]2C[C@H](C(=O)NCCOCCNC(=O)[C@H]3CC(=O)N(C)[C@@H]3c3cccnc3)C2)C1 [Example 187] | 63.7 | 71100 | 9.104 | 0.324 nM |

| Structure (SMILES) | Emax at 10 µM [1] [%] | Emax at 100 µM [1] [%] | IC50 [1] [nM] | pKd of Antibody for ARM Compound of Formula (I) [2] | EC50 [3] |
| --- | --- | --- | --- | --- | --- |
| CC(C)N(C)[C@@H]1CC[C@H](N2CC[C@H](Nc3ncnc4ccc(C(F)(F)F)cc34)C2=O)[C@H](NC(=O)CCOCCNC(=O)[C@H]2CC[C@@H](NC(=O)COCCNC(=O)[C@H]3CC(=O)N(C)[C@@H]3c3cccnc3)CC2)C1 [Example 107, (2S,3S)-N-(2-(2-(((1S,4R)-4-((2-(3-(((1R,2S,5R)-5-(Isopropyl(methyl)amino)-2-((S)-2-oxo-3-((6-(trifluoromethyl)quinazolin-4-yl)amino)pyrrolidin-1-yl)cyclohexyl)amino)-3-oxopropoxy)ethyl)carbamoyl)cyclohexyl)amino)-2-oxoethoxy)ethyl)-1-methyl-5-oxo-2-(pyridin-3-yl)pyrrolidine-3-carboxamide] | 12.2 |  | > 10000 | 9.161 | 0.158 nM |
